Assay results reported in the supplement of paper PMC11061612.

What was measured:
Test in all cases: combination Emax (second highest fraction inhibited in the dose matrix, 72 h); higher = more inhibition; extreme values may be limits of the assay
NCI-H2731 (Mesothelioma) = system: NCI-H2731 (Mesothelioma)
Summary of the method: (§1)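 Cell lines in DMEM/F12 or RPMI with 10% FBS were plated in 1536-well plates, held 24 hours at 37°C, 5% CO2, then given two-drug dose matrices for 72 hours (DMSO typically 0.2%). Viability was read by CellTiter-Glo 2.0 luminescence and scaled as inhibition from 0 (vehicle wells) to 1 (blank wells). Combination Emax is the second-highest inhibition in the matrix; Bliss excess is observed combination effect minus expected EA + EB − EA·EB, EA and EB being single-agent effects.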

RD (Rhabdomyosarcoma) = system: RD (Rhabdomyosarcoma)
Summary of the method: as §1

[1] = system: VMRC-RCZ (Kidney Carcinoma)
Summary of the method: as §1

[2] = system: KP-3 (Pancreatic Carcinoma)
Summary of the method: as §1

[3] = system: JHH-4 (Hepatocellular Carcinoma)
Summary of the method: as §1

[4] = system: KMS-12-BM (Plasma Cell Myeloma)
Summary of the method: as §1

[5] = system: ST486 (Burkitt's Lymphoma)
Summary of the method: as §1

[6] = system: COR-L279 (Small Cell Lung Carcinoma)
Summary of the method: as §1

[7] = system: KY821 (Acute Myeloid Leukemia)
Summary of the method: as §1

[8] = system: 8505C (Thyroid Gland Carcinoma)
Summary of the method: as §1

[9] = system: KYSE-270 (Esophageal Squamous Cell Carcinoma)
Summary of the method: as §1

[10] = system: NCI-H520 (Squamous Cell Lung Carcinoma)
Summary of the method: as §1

[11] = system: SK-GT-4 (Esophageal Adenocarcinoma)
Summary of the method: as §1

[12] = system: NCI-H526 (Small Cell Lung Carcinoma)
Summary of the method: as §1

M059J (Glioblastoma) = system: M059J (Glioblastoma)
Summary of the method: as §1

[13] = system: SU-DHL-5 (B-Cell Non-Hodgkin's Lymphoma)
Summary of the method: as §1

[14] = system: NCI-H3122 (Lung Adenocarcinoma)
Summary of the method: as §1

[15] = system: MN-60 (B-Lymphoblastic Leukemia)
Summary of the method: as §1

[16] = system: SK-GT-2 (Gastric Carcinoma)
Summary of the method: as §1

[17] = system: IM-95 (Gastric Carcinoma)
Summary of the method: as §1

| Structure (SMILES) | combination Emax (NCI-H2731 (Mesothelioma)) | combination Emax (RD (Rhabdomyosarcoma)) | combination Emax [1] | combination Emax [2] | combination Emax [3] | combination Emax [4] | combination Emax [5] | combination Emax [6] | combination Emax [7] | combination Emax [8] | combination Emax [9] | combination Emax [10] | combination Emax [11] | combination Emax [12] | combination Emax (M059J (Glioblastoma)) | combination Emax [13] | combination Emax [14] | combination Emax [15] | combination Emax [16] | combination Emax [17] |
| --- | --- | --- | --- | --- | --- | --- | --- | --- | --- | --- | --- | --- | --- | --- | --- | --- | --- | --- | --- | --- |
| Cc1c2c(nn1C)CSCc1cc(n(C)n1)CSc1cc(c3ccccc3c1)OCCCc1c(C(=O)O)n(C)c3c-2c(Cl)ccc13 [AZD5991] + C[C@@H](Nc1cc(F)cc(F)c1)c1cc(C(=O)N(C)C)cc2c(=O)cc(N3CCOCC3)oc12 [AZD8186] (first compound max 1 µM, 7x7, partner max 3 µM) | 0.151 | 0.521 | 0.287 | 0.124 | 0.271 | 1 | 0.829 | 0.624 | 1 | 0.2 | 0.622 | 0.644 | 0.288 | 0.482 | 0.421 | 1 | 0.352 | 0.343 | 0.179 | 0.817 |
| C[C@@H](c1ccc2nccn2c1)n1nnc2ncc(-c3cnn(C)c3)nc21 [Savolitinib] + Cc1c2c(nn1C)CSCc1cc(n(C)n1)CSc1cc(c3ccccc3c1)OCCCc1c(C(=O)O)n(C)c3c-2c(Cl)ccc13 [AZD5991] (first compound max 1 µM, 7x7, partner max 1 µM) | 0.119 | 0.21 | 0.134 | 0.235 | 0.182 | 1 | 0.483 | 0.244 | 1 | 0.173 | 0.652 | 0.208 | 0.14 | 0.43 | 0.204 | 1 | 0.188 | 0.114 | 0.163 | 0.732 |
| COc1cccc2c1C(=O)c1c(O)c3c(c(O)c1C2=O)C[C@@](O)(C(=O)CO)C[C@@H]3O[C@H]1C[C@H](N)[C@H](O)[C@H](C)O1 [Doxorubicin] + Cc1cc2ncnn2cc1Nc1ncc2c(n1)n(C1CCOCC1)c(=O)n2C [AZD7648] (first compound max 1 µM, 7x7, partner max 10 µM) | 0.715 | 0.493 | 0.317 | 0.152 | 0.666 | 0.84 | 0.955 | 1 | 0.983 | 0.846 | 0.944 | 0.771 | 0.593 | 0.988 | 0.829 | 1 | 0.921 | 0.833 | 0.406 | 0.7 |
| CN(C)CCCOc1ccc(-c2ccc3ncc4c(c3c2)n(C2CCOCC2)c(=O)n4C)cn1 [AZD0156] + CCN(CCO)CCCOc1ccc2c(Nc3cc(CC(=O)Nc4cccc(F)c4)[nH]n3)ncnc2c1 [AZD2811] (first compound max 1 µM, 7x7, partner max 1 µM) | 0.144 | 0.0353 | 0.078 | 0.0612 | 0.095 | 0.495 | 0.913 | 0.776 | 0.559 | 0.102 | 0.0944 | 0.458 | 0.192 | 0.373 | 0.338 | 0.931 | 0.446 | 0.207 | 0.0747 | 0.438 |
| COc1cccc(OCCCN)c1-c1cc(Nc2cnc(C#N)cn2)n[nH]1 [Prexasertib] + CN(C)CCCOc1ccc(-c2ccc3ncc4c(c3c2)n(C2CCOCC2)c(=O)n4C)cn1 [AZD0156] (first compound max 1 µM, 7x7, partner max 1 µM) | 0.406 | 0.536 | 0.342 | 0.513 | 0.529 | 1 | 0.991 | 0.809 | 1 | 0.541 | 1 | 0.775 | 0.724 | 0.895 | 0.658 | 1 | 0.697 | 0.546 | 0.823 | 0.458 |
| Cc1c2c(nn1C)CSCc1cc(n(C)n1)CSc1cc(c3ccccc3c1)OCCCc1c(C(=O)O)n(C)c3c-2c(Cl)ccc13 [AZD5991] + CCN(CCO)CCCOc1ccc2c(Nc3cc(CC(=O)Nc4cccc(F)c4)[nH]n3)ncnc2c1 [AZD2811] (first compound max 1 µM, 7x7, partner max 1 µM) | 0.273 | 0.546 | 0.221 | 0.186 | 0.315 | 1 | 0.976 | 0.787 | 1 | 0.866 | 0.926 | 0.599 | 0.26 | 0.8 | 0.523 | 1 | 0.918 | 0.206 | 0.204 | 0.875 |
| COc1nnc2ccc(N3CCC(c4ccc(OCCN5CCN(C)C(=O)[C@H]5C)cc4)CC3)nn12 [AZD5153] + Cn1cnc2c(F)c(Nc3ccc(Br)cc3Cl)c(C(=O)NOCCO)cc21 [Selumetinib] (first compound max 1 µM, 7x7, partner max 10 µM) | 0.39 | 0.77 | 0.308 | 0.338 | 0.906 | 1 | 0.994 | 0.682 | 1 | 0.593 | 0.58 | 0.61 | 0.651 | 0.941 | 0.618 | 1 | 0.68 | 0.78 | 0.479 | 0.564 |
| CN(CCO)CC[C@H](CSc1ccccc1)Nc1ccc(S(=O)(=O)NC(=O)c2ccc(N3CCC([C@@H](O)c4ccccc4-c4ccc(Cl)cc4)CC3)cc2)cc1S(=O)(=O)C(F)(F)F [AZD4320] + CN(C)CCCOc1ccc(-c2ccc3ncc4c(c3c2)n(C2CCOCC2)c(=O)n4C)cn1 [AZD0156] (first compound max 1 µM, 7x7, partner max 1 µM) | 0.109 | 0.632 | 0.13 | 0.0528 | 0.293 | 1 | 0.911 | 0.983 | 1 | 0.174 | 0.0949 | 0.474 | 0.188 | 0.925 | 0.366 | 0.512 | 0.209 | 0.263 | 0.154 | 0.69 |
| COc1nnc2ccc(N3CCC(c4ccc(OCCN5CCN(C)C(=O)[C@H]5C)cc4)CC3)nn12 [AZD5153] + Cc1c2c(nn1C)CSCc1cc(n(C)n1)CSc1cc(c3ccccc3c1)OCCCc1c(C(=O)O)n(C)c3c-2c(Cl)ccc13 [AZD5991] (first compound max 1 µM, 7x7, partner max 1 µM) | 0.528 | 0.808 | 0.323 | 0.275 | 0.379 | 1 | 0.978 | 0.982 | 1 | 0.475 | 0.942 | 0.744 | 0.53 | 1 | 0.864 | 1 | 0.691 | 0.719 | 0.319 | 0.798 |
| CC(=O)Nc1cccc(-n2c(=O)n(C3CC3)c(=O)c3c(Nc4ccc(I)cc4F)n(C)c(=O)c(C)c32)c1 [Trametinib] + Cc1nc(-c2cn3c(n2)-c2ccc(-c4cnn(C(C)(C)C(N)=O)c4)cc2OCC3)n(C(C)C)n1 [Taselisib] (first compound max 1 µM, 7x7, partner max 10 µM) | 0.498 | 0.972 | 0.308 | 0.446 | 0.997 | 0.636 | 0.775 | 0.661 | 0.97 | 0.496 | 0.8 | 0.65 | 0.954 | 0.304 | 0.713 | 1 | 0.99 | 0.42 | 0.723 | 0.584 |
| Cn1cnc2c(F)c(Nc3ccc(Br)cc3Cl)c(C(=O)NOCCO)cc21 [Selumetinib] + C[C@@H]1COCCN1C2=NC(=NC(=C2)C3(CC3)[S@](=N)(=O)C)C4=C5C=CNC5=NC=C4 [AZD6738] (first compound max 10 µM, 7x7, partner max 10 µM) | 0.173 | 0.522 | 0.217 | 0.156 | 0.752 | 0.865 | 0.877 | 0.626 | 0.944 | 0.515 | 0.524 | 0.406 | 0.616 | 0.427 | 0.291 | 1 | 0.734 | 0.56 | 0.186 | 0.304 |
| NC1(C(=O)N[C@@H](CCO)c2ccc(Cl)cc2)CCN(c2ncnc3[nH]ccc23)CC1 [Capivasertib] + CC(=O)c1c(C)c2cnc(Nc3ccc(N4CCNCC4)cn3)nc2n(C2CCCC2)c1=O [Palbociclib] (first compound max 10 µM, 7x7, partner max 10 µM) | 0.361 | 0.463 | 0.401 | 0.25 | 0.466 | 0.734 | 0.549 | 0.688 | 0.757 | 0.187 | 0.27 | 0.717 | 0.588 | 0.15 | 0.338 | 1 | 0.701 | 0.583 | 0.248 | 0.423 |
| CN(C)CCCOc1ccc(-c2ccc3ncc4c(c3c2)n(C2CCOCC2)c(=O)n4C)cn1 [AZD0156] + C[C@@H]1COCCN1C2=NC(=NC(=C2)C3(CC3)[S@](=N)(=O)C)C4=C5C=CNC5=NC=C4 [AZD6738] (first compound max 1 µM, 7x7, partner max 10 µM) | 0.244 | 0.252 | 0.232 | 0.398 | 0.133 | 1 | 0.948 | 0.694 | 0.966 | 0.24 | 0.914 | 0.682 | 0.661 | 0.529 | 0.637 | 1 | 0.746 | 0.402 | 0.311 | 0.339 |
